Data taken from US20030211163A1, “Combination antiviral therapy” (priority 2002, published 2003).
In brackets after ≈: the same amount, converted by molar mass. Like-named read-outs stand apart in the source and are kept apart here.

Key:
[1] = Solubility of the drug in vehicles (drug saturated solutions); assay type: physicochemical
[2] = Franz diffusion cell skin drug permeation through cadaver skin, 24 hour period, HPLC; assay type: in vitro ADME; details: for Flux: cadaver skin; for Skin Flux: Table 4 (examples)
Method: As a way of measuring the skin drug permeation properties of the COX-2 inhibitors, a Franz diffusion cell was provided utilizing cadaver skin as the membrane and a 1% Tween 80 solution as the receptor phase. Frozen cadaver skin was thawed at room temperature and punched with a 20 mm puncher. The receptor compartment of the Franz diffusion cell was filled with 1% Tween 80 solution and the diffusion cells maintained at 32° C. A 6% polyethylene glycol-20-oleyl ether is also suitable as a receptor fluid. The skin was mounted on the receptor, covered with the cup and fastened by a clamp. The air bubbles were removed from the receptor fluid and it was allowed to equilibrate for 30 minutes. COX-2 pharmaceutical compositions, according to the present invention, were brought into contact with the cadaver skin and the amount of drug which permeated through the cadaver skin in a 24 hour period was determined by high performance liquid chromatography.

[3] = Table 6 (examples), Saturated Cb in 5% Pb, 67% EtOH
[4] = Table 6 (examples), Saturated Vb in 5% Pb, 67% EtOH
[5] = Table 1, drug saturated solution, vehicle 70% EtOH, 32° C.
[6] = Table 1, drug saturated solution, vehicle EtOH

Row | SMILES | solubility ([1]; aqueous with cosolvent or surfactant or cyclodextrin, thermodynamic from solid) [mg/mL] | Flux [2, 3] [μg/cm^2 · day] | Flux [2, 4] [μg/cm^2 · day] | Effect as permeation enhancer on transdermal delivery of selective COX-2 drugs across the skin ([2]; parecoxib used as permeation enhancer) | solubility ([1]; 70% aqueous ethanol, aqueous with cosolvent or surfactant or cyclodextrin, thermodynamic from solid, Table 1, drug saturated solution, vehicle 70% EtOH, read-out: Solubility) [mg/mL] | solubility ([1]; Table 2, 70% aqueous ethanol solution) [mg/mL] | solubility ([1]; ethanol, organic solvent or mixture, thermodynamic from solid, Table 1, drug saturated solution, vehicle EtOH, read-out: Solubility) [mg/mL] | solubility ([1]; polyethylene glycol 400, organic solvent or mixture, thermodynamic from solid, Table 1, drug saturated solution, vehicle PEG 400, read-out: Solubility) [mg/mL] | solubility ([1]; propylene glycol, organic solvent or mixture, thermodynamic from solid, Table 1, drug saturated solution, vehicle PG, read-out: Solubility) [mg/mL] | Flux [2, 5] [μg/cm^2 · day] | Flux [2, 6] [μg/cm^2 · day] | Skin Flux ([2]; % w/w: water 30, ethanol 30, isopropanol 10, 1,3-butanediol 22, oleyl alcohol 5, thymol 3) [μg/cm^2 · day] | Skin Flux ([2]; % w/w: water 30, ethanol 62, oleyl alcohol 5, thymol 3) [μg/cm^2 · day] | Skin Flux ([2]; % w/w: water 33, ethanol 62, oleyl alcohol 5) [μg/cm^2 · day]
1 | CCC(=O)NS(=O)(=O)c1ccc(-c2c(-c3ccccc3)noc2C)cc1 [Parecoxib, parecoxib] | 386 (≈ 1040 mM) | 74.7 ± 14.7 | 64.1 ± 11.3 | increase the transdermal delivery |  |  |  |  |  |  |  |  |  | 
2 | Cc1ccc(-c2cc(C(F)(F)F)nn2-c2ccc(S(N)(=O)=O)cc2)cc1 [Celecoxib, celecoxib] |  | 183 ± 153 |  |  | 15.2 (≈ 39.9 mM) | 15.2 (≈ 39.9 mM) | 91.4 (≈ 240 mM) | 297 (≈ 779 mM) | 33.3 (≈ 87.3 mM) | 15.7 | 5.62 |  |  | 
3 | Cc1onc(-c2ccccc2)c1-c1ccc(S(N)(=O)=O)cc1 [Valdecoxib, valdecoxib] |  |  | 108 ± 16.7 |  |  |  |  |  |  | 12.8 | 1.44 | 302 ± 48.9 | 441 ± 160 | 287 ± 23.9
